Results reported in ChEMBL document CHEMBL4428037 (J Med Chem, 2016).
Active and inactive are the calls of the source. No cut-off for these calls is given here.

What was measured:
[1] = test system: A549; test: Induction of apoptosis in human A549 cells assessed as induction of cytoplasmic membrane blebbing at 40 nM incubated for 24 hrs microscopy; type: functional, cell-based
[2] = target: Tubulin (Sus scrofa, UniProt P02554+P02550); test: (§1) Inhibition of porcine brain tubulin polymerization incubated for 60 mins by fluorescence-based assay
[3] = target: T1, Tubulin (Sus scrofa) (UniProt P02554+P02550); test: as §1
[4] = test system: NCI-H460; test: Growth inhibition of human NCI-H460 cells incubated for 48 hrs by MTT assay; type: functional, cell-based; settings: NCI-H460, 48 h
[5] = test system: A549; test: Inhibition of colony formation in human A549 cells incubated for 9 days by crystal violet staining based assay; type: functional, cell-based
[6] = target: T1, Tubulin (Sus scrofa); test: Displacement of [3H]colchicine from biotinylated porcine tubulin at 1 uM incubated for 2 hrs by competition scintillation proximity; type: protein assay
[7] = test system: A549; test: Inhibition of colony formation in human A549 cells at 10 nM incubated for 9 days by crystal violet staining based assay; type: functional; settings: A549, 216 h
[8] = test system: A549; test: Induction of apoptosis in human A549 cells assessed as early apoptotic cells level at 40 nM incubated for 24 hrs by Annexin V-FITC/PI staining based FACS flow cytometry (reference value: 0.65%); type: functional
[9] = test system: A549; test: Induction of apoptosis in human A549 cells assessed as late apoptotic cells level at 10 nM incubated for 24 hrs by Annexin V-FITC/PI staining based FACS flow cytometry (reference value: 2.15%); type: functional
[10] = test system: HUVEC; test: Inhibition of capillary tube formation in HUVEC assessed as reduction in tube-like structures formation at 40 nM incubated for 8 hrs by fluorescence microscopy based 3D-matrigel assay; type: functional; settings: Homo sapiens
[11] = test system: NCI-H460; test: Inhibition of colony formation in human NCI-H460 cells incubated for 9 days by crystal violet staining based assay; type: functional, cell-based
[12] = target: T2, Tubulin alpha (Homo sapiens) (UniProt P0DPH7+P68366+Q71U36+P68363+Q9BQE3+Q6PEY2+A6NHL2+Q9NY65); test: Inhibition of alpha tubulin polymerization in human A549 cells assessed as induction of cell border shrinkage of microtubules at 40 nM by Immunofluorescent staining based fluorescence microscopy
[13] = test system: A549; test: Increase in cyclin B1 expression in human A549 cells incubated for 24 hrs by Western blotting; type: functional, cell-based
[14] = test system: Non-small cell lung cancer cell line; test: Antitumor activity against human NSCLC xenografted in Balb/c-nu mouse assessed as inhibition of tumor growth at 12.5 mg/kg, ip dosed every day for 21 consecutive days and measured every 3 days; type: functional; settings: 72 h, read-out: TGI
[15] = test system: A549; test: Growth inhibition of human A549 cells incubated for 48 hrs by MTT assay; type: functional, cell-based; settings: A549, 48 h
[16] = test system: A549; test: Induction of apoptosis in human A549 cells assessed as necrotic cells level at 10 nM incubated for 24 hrs by Annexin V-FITC/PI staining based FACS flow cytometry (reference value: 0.37%); type: functional
[17] = test system: A549; test: Induction of apoptosis in human A549 cells assessed as necrotic cells level at 20 nM incubated for 24 hrs by Annexin V-FITC/PI staining based FACS flow cytometry (reference value: 0.37%); type: functional
[18] = test system: A549; test: Induction of apoptosis in human A549 cells assessed as induction of cell shrinkage at 40 nM incubated for 24 hrs microscopy; type: functional, cell-based
[19] = test system: A549; test: Induction of apoptosis in human A549 cells assessed as live cells level at 10 nM incubated for 24 hrs by Annexin V-FITC/PI staining based FACS flow cytometry (reference value: 96.83%); type: functional
[20] = test system: A549; test: Cytotoxicity against human A549 cells assessed as reduction in cell viability at 5 nM to 80 nM incubated for 24 hrs by trypan blue staining assay; type: cell-based; settings: a549, 24 h, 0.005 µM
[21] = Toxicity in human NSCLC xenografted Balb/c-nu mouse assessed as effect on body weight at 50 mg/kg, ip dosed every day for 21 consecutive days; type: organism-based; settings: in vivo
[22] = test system: A549; test: Induction of apoptosis in human A549 cells assessed as induction of nucleus fragmentation at 40 nM incubated for 24 hrs microscopy; type: functional, cell-based
[23] = test system: A549; test: Induction of apoptosis in human A549 cells assessed as late apoptotic cells level at 40 nM incubated for 24 hrs by Annexin V-FITC/PI staining based FACS flow cytometry (reference value: 2.15%); type: functional
[24] = test system: A549; test: Induction of apoptosis in human A549 cells assessed as live cells level at 40 nM incubated for 24 hrs by Annexin V-FITC/PI staining based FACS flow cytometry (reference value: 96.83%); type: functional
[25] = test system: HUVEC; test: Inhibition of capillary tube formation in HUVEC assessed as reduction in tube-like structures formation at 20 nM incubated for 8 hrs by fluorescence microscopy based 3D-matrigel assay; type: functional; settings: Homo sapiens
[26] = test system: A549; test: Induction of apoptosis in human A549 cells assessed as necrotic cells level at 40 nM incubated for 24 hrs by Annexin V-FITC/PI staining based FACS flow cytometry (reference value: 0.37%); type: functional
[27] = test system: A549; test: Induction of apoptosis in human A549 cells assessed as late apoptotic cells level at 20 nM incubated for 24 hrs by Annexin V-FITC/PI staining based FACS flow cytometry (reference value: 2.15%); type: functional
[28] = test system: A549; test: Induction of apoptosis in human A549 cells assessed as early apoptotic cells level at 20 nM incubated for 24 hrs by Annexin V-FITC/PI staining based FACS flow cytometry (reference value: 0.65%); type: functional
[29] = test system: A549; test: Induction of apoptosis in human A549 cells assessed as live cells level at 20 nM incubated for 24 hrs by Annexin V-FITC/PI staining based FACS flow cytometry (reference value: 96.83%); type: functional
[30] = Toxicity in human NSCLC xenografted Balb/c-nu mouse assessed as effect on body weight at 12.5 mg/kg, ip dosed every day for 21 consecutive days; type: organism-based; settings: in vivo
[31] = test system: HUVEC; test: Inhibition of capillary tube formation in HUVEC assessed as reduction in tube-like structures formation incubated for 8 hrs by fluorescence microscopy based 3D-matrigel assay; type: functional, cell-based; settings: Homo sapiens
[32] = target: T2, Tubulin alpha (Homo sapiens); test: Inhibition of alpha tubulin polymerization in human A549 cells assessed as induction of microtubule network dis-organization at 40 nM by Immunofluorescent staining based fluorescence microscopy; type: cell-based
[33] = test system: A549; test: Induction of apoptosis in human A549 cells assessed as increase in cleaved caspase-3 level incubated for 24 hrs by Western blotting; type: functional, cell-based
[34] = test system: A549; test: Induction of apoptosis in human A549 cells assessed as early apoptotic cells level at 10 nM incubated for 24 hrs by Annexin V-FITC/PI staining based FACS flow cytometry (reference value: 0.65%); type: functional
[35] = test system: HeLa; test: Growth inhibition of human HeLa cells incubated for 72 hrs by MTT assay; type: functional, cell-based
[36] = test system: PC-3; test: Growth inhibition of human PC3 cells incubated for 72 hrs by MTT assay; type: functional, cell-based; settings: PC-3, 72 h
[37] = test system: A549; test: Induction of cell cycle arrest in human A549 cells assessed as accumulation at G2/M phase incubated for 24 hrs by propidium iodide staining based FACS flow cytometry; type: functional
[38] = test system: A549; test: Reduction in p-cdc2 expression in human A549 cells incubated for 24 hrs by Western blotting; type: functional, cell-based

IC50 [2]: 4620 nM | inhibition [3]: Dose-dependent effect | IC50 [4]: 37.3 nM | inhibition [6]: 37% | inhibition [12]: Active | IC50 [15]: 41.5 nM | inhibition [32]: Active | IC50 [35]: 7.4 nM | IC50 [36]: 19 nM
Structure (SMILES): CCOc1cccc(Nc2nn(C)c3c2Cc2cc(OCC)c(OCC(N)=O)cc2-3)c1
Activity [1]: Active | inhibition [5]: Dose-dependent effect | inhibition at 0.01 µM [7]: 91% | Activity [8]: 9.06% | Activity [9]: 2.7% | inhibition at 0.04 µM [10]: 69% | inhibition [11]: Dose-dependent effect | Activity [13]: Dose-dependent effect | inhibition in vivo at 12.5 mg/kg [14]: 33.8% | Activity [16]: 0.62% | Activity [17]: 0.84% | Activity [18]: Active | Activity [19]: 95.66% | Activity [20]: Non-Toxic | Activity [21]: Non-Toxic | Activity [22]: Active | Activity [23]: 5.47% | Activity [24]: 84.24% | inhibition at 0.02 µM [25]: 58% | Activity [26]: 1.23% | Activity [27]: 4.57% | Activity [28]: 3.78% | Activity [29]: 90.81% | Activity [30]: Non-Toxic | inhibition [31]: Dose-dependent effect | Activity [33]: Dose-dependent effect | Activity [34]: 1.01% | Activity [37]: Dose-dependent effect | Activity [38]: Dose-dependent effect
